Laboratory results as given in PubChem BioAssay (NCI).
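Method: 48-hour compound exposure of cells in 96-well plates, five concentrations, linear interpolation of endpoints. TGI denotes the concentration required for complete inhibition of growth.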

Tests used:
Experiment in all cases: NCI tumour cell line growth inhibition, 48 h
SK-MEL-5 melanoma = tested on: SK-MEL-5 melanoma
OVCAR-3 ovarian = tested on: OVCAR-3 ovarian
SR leukemia = tested on: SR leukemia
U251 CNS = tested on: U251 CNS
SF-295 CNS = tested on: SF-295 CNS
RXF 393 renal = tested on: RXF 393 renal
HCT-116 colon = tested on: HCT-116 colon
786-0 renal = tested on: 786-0 renal
K-562 leukemia = tested on: K-562 leukemia
SF-539 CNS = tested on: SF-539 CNS
HCT-15 colon = tested on: HCT-15 colon
MOLT-4 leukemia = tested on: MOLT-4 leukemia
NCI-H522 lung = tested on: NCI-H522 lung
NCI-H460 lung = tested on: NCI-H460 lung
SK-MEL-28 melanoma = tested on: SK-MEL-28 melanoma
SK-OV-3 ovarian = tested on: SK-OV-3 ovarian
RPMI-8226 leukemia = tested on: RPMI-8226 leukemia

CCCC(C)n1c(C)nc2c1C(=O)c1ccccc1C2=O (centres undefined)
TGI (SK-MEL-5 melanoma): 30 µM
TGI (OVCAR-3 ovarian): 85.1 µM
TGI (SR leukemia): > 100 µM
TGI (U251 CNS): > 100 µM
TGI (SF-295 CNS): > 100 µM
TGI (RXF 393 renal): 69.2 µM
TGI (HCT-116 colon): 19.5 µM
TGI (786-0 renal): > 100 µM
TGI (K-562 leukemia): > 100 µM
TGI (SF-539 CNS): 98 µM
TGI (HCT-15 colon): > 100 µM
TGI (MOLT-4 leukemia): > 100 µM
TGI (NCI-H522 lung): 97 µM
TGI (NCI-H460 lung): 16.8 µM
TGI (SK-MEL-28 melanoma): > 100 µM
TGI (SK-OV-3 ovarian): > 100 µM

COc1cc(CNc2cnc3cc(N)ccc3n2)cc(OC)c1OC
TGI (SK-MEL-5 melanoma): > 100 µM
TGI (OVCAR-3 ovarian): 41.1 µM
TGI (SR leukemia): > 100 µM
TGI (U251 CNS): > 100 µM
TGI (SF-295 CNS): 80.8 µM
TGI (HCT-116 colon): 50.2 µM
TGI (786-0 renal): > 100 µM
TGI (K-562 leukemia): > 100 µM
TGI (SF-539 CNS): 42.4 µM
TGI (HCT-15 colon): > 100 µM
TGI (MOLT-4 leukemia): > 100 µM
TGI (NCI-H522 lung): 74.5 µM
TGI (NCI-H460 lung): > 100 µM
TGI (SK-MEL-28 melanoma): > 100 µM
TGI (SK-OV-3 ovarian): 53 µM

Cc1nc2c(o1)C(=Nc1ccccc1)c1ccccc1C2=O
TGI (SK-MEL-5 melanoma): 5.78 µM
TGI (OVCAR-3 ovarian): 6.21 µM
TGI (U251 CNS): 9.4 µM
TGI (SF-295 CNS): 30.8 µM
TGI (RXF 393 renal): 44 µM
TGI (HCT-116 colon): 23.2 µM
TGI (RPMI-8226 leukemia): 38.1 µM
TGI (786-0 renal): 28.5 µM
TGI (K-562 leukemia): > 100 µM
TGI (SF-539 CNS): 16.7 µM
TGI (HCT-15 colon): 22.6 µM
TGI (MOLT-4 leukemia): 48.3 µM
TGI (NCI-H522 lung): 15.8 µM
TGI (NCI-H460 lung): 25.5 µM
TGI (SK-OV-3 ovarian): 28 µM

O=C1c2ccccc2C(=O)c2c(O)c(NCCCNCCO)cc(O)c21
TGI (OVCAR-3 ovarian): 26.6 µM
TGI (U251 CNS): 21.1 µM
TGI (SF-295 CNS): 23.1 µM
TGI (RPMI-8226 leukemia): 25.5 µM
TGI (786-0 renal): 23 µM
TGI (K-562 leukemia): 3.5 µM
TGI (SF-539 CNS): 22.2 µM
TGI (HCT-15 colon): 24.6 µM
TGI (MOLT-4 leukemia): 14 µM
TGI (NCI-H460 lung): 17.8 µM
TGI (SK-MEL-28 melanoma): 30.4 µM
TGI (SK-OV-3 ovarian): 26.1 µM

CC1(C)O[C@@H](CCl)C[C@H](C#N)O1
TGI (SK-MEL-5 melanoma): > 100 µM
TGI (OVCAR-3 ovarian): > 100 µM
TGI (SR leukemia): > 100 µM
TGI (U251 CNS): > 100 µM
TGI (SF-295 CNS): > 100 µM
TGI (RXF 393 renal): > 100 µM
TGI (HCT-116 colon): > 100 µM
TGI (RPMI-8226 leukemia): > 100 µM
TGI (786-0 renal): > 100 µM
TGI (K-562 leukemia): > 100 µM
TGI (SF-539 CNS): > 100 µM
TGI (HCT-15 colon): > 100 µM
TGI (MOLT-4 leukemia): > 100 µM
TGI (NCI-H522 lung): > 100 µM
TGI (NCI-H460 lung): > 100 µM
TGI (SK-MEL-28 melanoma): > 100 µM
TGI (SK-OV-3 ovarian): > 100 µM

O=C1C=CC(=C(c2ccc(O)cc2)c2ccc(O)cc2)C=C1
TGI (SK-MEL-5 melanoma): 19.8 µM
TGI (OVCAR-3 ovarian): 19.9 µM
TGI (SR leukemia): 7.37 µM
TGI (U251 CNS): 22.6 µM
TGI (SF-295 CNS): 25.1 µM
TGI (RXF 393 renal): 16.9 µM
TGI (HCT-116 colon): 22.7 µM
TGI (RPMI-8226 leukemia): 21 µM
TGI (786-0 renal): 26.5 µM
TGI (K-562 leukemia): 14.2 µM
TGI (SF-539 CNS): 23.6 µM
TGI (HCT-15 colon): 28.6 µM
TGI (MOLT-4 leukemia): 29.7 µM
TGI (NCI-H522 lung): 21.8 µM
TGI (NCI-H460 lung): 30.5 µM
TGI (SK-MEL-28 melanoma): 25.3 µM
TGI (SK-OV-3 ovarian): 32.3 µM

O=S(OC12CC3CC(CC(C3)C1)C2)c1cc(Cl)cc(Cl)c1OCc1ccccc1 (centres undefined)
TGI (OVCAR-3 ovarian): > 100 µM
TGI (SR leukemia): > 100 µM
TGI (U251 CNS): > 100 µM
TGI (RXF 393 renal): > 100 µM
TGI (HCT-116 colon): > 100 µM
TGI (K-562 leukemia): > 100 µM
TGI (SF-539 CNS): > 100 µM
TGI (MOLT-4 leukemia): > 100 µM
TGI (NCI-H522 lung): 37.1 µM
TGI (NCI-H460 lung): > 100 µM
TGI (SK-MEL-28 melanoma): > 100 µM
TGI (SK-OV-3 ovarian): > 100 µM
